Experimental data: the NIST ThermoML archive (doi:10.1021/je900244c)
“And” between values parts separate entries of the source, which are not always exact repeats. Identical values can stand only once.

Assay: xn = mol fraction of the nth substance listed
Conditions: Gas, Buoyancy - hydrostatic balance with magnetic suspension - two sinkers

CC(C)C [2-methylpropane] + CCC
Conditions	mass density
303.15 K, 440.3 kPa, x2 = 0.503	9.824 kg/m3
303.15 K, 440.7 kPa, x2 = 0.503	9.834 kg/m3
303.15 K, 449.9 kPa, x2 = 0.503	10.061 kg/m3
303.15 K, 450 kPa, x2 = 0.503	10.069 kg/m3
303.15 K, 460 kPa, x2 = 0.503	10.317 kg/m3
303.15 K, 460.4 kPa, x2 = 0.503	10.325 kg/m3
303.15 K, 470.2 kPa, x2 = 0.503	10.57 kg/m3
303.15 K, 470.5 kPa, x2 = 0.503	10.581 kg/m3
303.15 K, 480 kPa, x2 = 0.503	10.823 kg/m3
303.15 K, 480.3 kPa, x2 = 0.503	10.83 kg/m3
303.15 K, 489.7 kPa, x2 = 0.503	11.072 kg/m3
303.15 K, 490.4 kPa, x2 = 0.503	11.087 kg/m3
303.15 K, 500.3 kPa, x2 = 0.503	11.344 kg/m3
303.15 K, 500.4 kPa, x2 = 0.503	11.344 kg/m3
303.15 K, 510.3 kPa, x2 = 0.503	11.608 kg/m3
303.15 K, 510.5 kPa, x2 = 0.503	11.6 kg/m3
303.15 K, 520.4 kPa, x2 = 0.503	11.861 kg/m3 and 11.864 kg/m3
303.15 K, 530.4 kPa, x2 = 0.503	12.121 kg/m3
303.15 K, 530.7 kPa, x2 = 0.503	12.129 kg/m3
303.15 K, 540.1 kPa, x2 = 0.503	12.37 kg/m3
303.15 K, 540.2 kPa, x2 = 0.503	12.378 kg/m3
303.15 K, 550.1 kPa, x2 = 0.503	12.642 kg/m3
303.15 K, 550.3 kPa, x2 = 0.503	12.642 kg/m3
303.15 K, 560.3 kPa, x2 = 0.503	12.914 kg/m3
303.15 K, 564.6 kPa, x2 = 0.503	13.019 kg/m3
303.15 K, 570.1 kPa, x2 = 0.503	13.17 kg/m3
303.15 K, 570.4 kPa, x2 = 0.503	13.178 kg/m3
303.15 K, 575.1 kPa, x2 = 0.503	13.306 kg/m3
303.15 K, 580.1 kPa, x2 = 0.503	13.434 kg/m3
303.15 K, 580.7 kPa, x2 = 0.503	13.453 kg/m3
303.15 K, 584.3 kPa, x2 = 0.503	13.548 kg/m3
303.15 K, 599.9 kPa, x2 = 0.799	12.55 kg/m3
303.15 K, 600.1 kPa, x2 = 0.799	12.557 kg/m3
303.15 K, 609.7 kPa, x2 = 0.799	12.784 kg/m3
303.15 K, 610.2 kPa, x2 = 0.799	12.802 kg/m3
303.15 K, 620.2 kPa, x2 = 0.799	13.04 kg/m3
303.15 K, 630.2 kPa, x2 = 0.799	13.289 kg/m3
303.15 K, 639.7 kPa, x2 = 0.799	13.516 kg/m3
303.15 K, 649.7 kPa, x2 = 0.799	13.757 kg/m3
303.15 K, 659.8 kPa, x2 = 0.799	14.006 kg/m3
303.15 K, 680.1 kPa, x2 = 0.799	14.516 kg/m3
303.15 K, 700 kPa, x2 = 0.799	15.01 kg/m3
303.15 K, 720 kPa, x2 = 0.799	15.515 kg/m3
303.15 K, 739.9 kPa, x2 = 0.799	16.028 kg/m3
303.15 K, 760.5 kPa, x2 = 0.799	16.557 kg/m3
303.15 K, 770.4 kPa, x2 = 0.799	16.821 kg/m3
303.15 K, 779.5 kPa, x2 = 0.799	17.055 kg/m3
303.15 K, 780.1 kPa, x2 = 0.799	17.073 kg/m3
303.15 K, 789.8 kPa, x2 = 0.799	17.319 kg/m3
303.15 K, 790.1 kPa, x2 = 0.799	17.342 kg/m3
303.15 K, 799.6 kPa, x2 = 0.799	17.59 kg/m3
323.15 K, 590.1 kPa, x2 = 0.244	13.582 kg/m3
323.15 K, 600.1 kPa, x2 = 0.244	13.847 kg/m3
323.15 K, 600.6 kPa, x2 = 0.249	13.833 kg/m3
323.15 K, 600.7 kPa, x2 = 0.249	13.848 kg/m3
323.15 K, 609.5 kPa, x2 = 0.244	14.1 kg/m3
323.15 K, 610.4 kPa, x2 = 0.249	14.09 kg/m3
323.15 K, 620.1 kPa, x2 = 0.249	14.354 kg/m3
323.15 K, 620.5 kPa, x2 = 0.244	14.391 kg/m3
323.15 K, 620.7 kPa, x2 = 0.249	14.369 kg/m3
323.15 K, 629.7 kPa, x2 = 0.244	14.643 kg/m3
323.15 K, 630.3 kPa, x2 = 0.249	14.633 kg/m3
323.15 K, 630.5 kPa, x2 = 0.244	14.658 kg/m3
323.15 K, 630.5 kPa, x2 = 0.249	14.64 kg/m3
323.15 K, 640.1 kPa, x2 = 0.249	14.889 kg/m3
323.15 K, 640.7 kPa, x2 = 0.244	14.937 kg/m3
323.15 K, 640.9 kPa, x2 = 0.249	14.923 kg/m3
323.15 K, 650.1 kPa, x2 = 0.249	15.168 kg/m3
323.15 K, 650.3 kPa, x2 = 0.244	15.201 kg/m3
323.15 K, 651.3 kPa, x2 = 0.244	15.223 kg/m3
323.15 K, 660 kPa, x2 = 0.249	15.436 kg/m3
323.15 K, 660.1 kPa, x2 = 0.249	15.447 kg/m3
323.15 K, 660.6 kPa, x2 = 0.244	15.487 kg/m3
323.15 K, 670 kPa, x2 = 0.244	15.744 kg/m3
323.15 K, 670 kPa, x2 = 0.249	15.714 kg/m3
323.15 K, 670.1 kPa, x2 = 0.249	15.719 kg/m3
323.15 K, 679.7 kPa, x2 = 0.244	16.015 kg/m3
323.15 K, 680.3 kPa, x2 = 0.249	15.998 kg/m3
323.15 K, 680.4 kPa, x2 = 0.249	16.006 kg/m3
323.15 K, 690.2 kPa, x2 = 0.244	16.31 kg/m3
323.15 K, 690.2 kPa, x2 = 0.249	16.277 kg/m3 and 16.285 kg/m3
323.15 K, 691.1 kPa, x2 = 0.244	16.328 kg/m3
323.15 K, 700.1 kPa, x2 = 0.244	16.592 kg/m3
323.15 K, 700.3 kPa, x2 = 0.249	16.571 kg/m3
323.15 K, 700.4 kPa, x2 = 0.249	16.571 kg/m3
323.15 K, 709.8 kPa, x2 = 0.244	16.868 kg/m3
323.15 K, 710 kPa, x2 = 0.249	16.835 kg/m3
323.15 K, 710.1 kPa, x2 = 0.249	16.843 kg/m3
323.15 K, 710.3 kPa, x2 = 0.244	16.875 kg/m3
323.15 K, 720.3 kPa, x2 = 0.249	17.129 kg/m3
323.15 K, 720.4 kPa, x2 = 0.249	17.137 kg/m3
323.15 K, 720.6 kPa, x2 = 0.244	17.177 kg/m3
323.15 K, 730 kPa, x2 = 0.249	17.416 kg/m3
323.15 K, 730.3 kPa, x2 = 0.249	17.408 kg/m3
323.15 K, 730.4 kPa, x2 = 0.244	17.456 kg/m3
323.15 K, 730.5 kPa, x2 = 0.244	17.456 kg/m3
323.15 K, 739.8 kPa, x2 = 0.249	17.687 kg/m3
323.15 K, 740 kPa, x2 = 0.249	17.697 kg/m3
323.15 K, 740.4 kPa, x2 = 0.244	17.75 kg/m3
323.15 K, 749.8 kPa, x2 = 0.244	18.022 kg/m3
323.15 K, 750 kPa, x2 = 0.249	17.989 kg/m3 and 17.996 kg/m3
323.15 K, 750.2 kPa, x2 = 0.244	18.029 kg/m3
323.15 K, 759.7 kPa, x2 = 0.249	18.276 kg/m3
323.15 K, 759.9 kPa, x2 = 0.249	18.276 kg/m3
323.15 K, 761.2 kPa, x2 = 0.244	18.357 kg/m3
323.15 K, 769.7 kPa, x2 = 0.244	18.602 kg/m3
323.15 K, 769.9 kPa, x2 = 0.249	18.577 kg/m3
323.15 K, 770 kPa, x2 = 0.249	18.577 kg/m3
323.15 K, 770.4 kPa, x2 = 0.499	16.983 kg/m3
323.15 K, 770.7 kPa, x2 = 0.499	16.982 kg/m3
323.15 K, 780 kPa, x2 = 0.249	18.871 kg/m3
323.15 K, 780.2 kPa, x2 = 0.499	17.239 kg/m3
323.15 K, 780.3 kPa, x2 = 0.499	17.244 kg/m3
323.15 K, 780.5 kPa, x2 = 0.249	18.894 kg/m3
323.15 K, 790.6 kPa, x2 = 0.244	19.228 kg/m3
323.15 K, 790.6 kPa, x2 = 0.499	17.513 kg/m3
323.15 K, 799.9 kPa, x2 = 0.249	19.467 kg/m3
323.15 K, 800.2 kPa, x2 = 0.499	17.765 kg/m3 and 17.769 kg/m3
323.15 K, 810.5 kPa, x2 = 0.499	18.042 kg/m3
323.15 K, 820.2 kPa, x2 = 0.499	18.299 kg/m3
323.15 K, 820.4 kPa, x2 = 0.499	18.307 kg/m3
323.15 K, 830.3 kPa, x2 = 0.499	18.572 kg/m3
323.15 K, 840.3 kPa, x2 = 0.499	18.844 kg/m3
323.15 K, 840.4 kPa, x2 = 0.499	18.848 kg/m3
323.15 K, 850.3 kPa, x2 = 0.499	19.121 kg/m3
323.15 K, 860.2 kPa, x2 = 0.499	19.387 kg/m3
323.15 K, 860.4 kPa, x2 = 0.499	19.398 kg/m3
323.15 K, 870.4 kPa, x2 = 0.499	19.669 kg/m3
323.15 K, 879.9 kPa, x2 = 0.499	19.938 kg/m3
323.15 K, 880.4 kPa, x2 = 0.499	19.948 kg/m3
323.15 K, 890.2 kPa, x2 = 0.499	20.228 kg/m3
323.15 K, 900.1 kPa, x2 = 0.499	20.506 kg/m3
323.15 K, 900.6 kPa, x2 = 0.499	20.517 kg/m3
323.15 K, 910.1 kPa, x2 = 0.499	20.784 kg/m3
323.15 K, 920.3 kPa, x2 = 0.499	21.078 kg/m3
323.15 K, 920.6 kPa, x2 = 0.499	21.087 kg/m3
323.15 K, 930.3 kPa, x2 = 0.499	21.359 kg/m3
323.15 K, 939.7 kPa, x2 = 0.499	21.637 kg/m3
323.15 K, 939.8 kPa, x2 = 0.499	21.635 kg/m3
323.15 K, 950.6 kPa, x2 = 0.499	21.949 kg/m3
323.15 K, 960.2 kPa, x2 = 0.499	22.222 kg/m3
323.15 K, 960.3 kPa, x2 = 0.499	22.242 kg/m3
323.15 K, 970.3 kPa, x2 = 0.499	22.521 kg/m3
323.15 K, 978.9 kPa, x2 = 0.499	22.767 kg/m3
323.15 K, 979.6 kPa, x2 = 0.499	22.791 kg/m3
